Data: patent publication US20250144067A1, “PERSONALIZED STARVATION THERAPY FOR CANCER” (Faeth Therapeutics, Inc., priority 2021, published 2025)
Structures can show the parent of a compound that is named as a salt. Where two headings read alike, the source gives them in different places.

Tests used:
[1] = test system: NCI-H292 lung cancer cells; experiment: FDA drug screening, complete media vs cholesterol-free media with simvastatin (TABLE 2); assay type: cell-based, human
[2] = test system: NCI-H292 lung cancer cells; experiment: FDA drug screening, complete media vs cholesterol-free media without statin (TABLE 1); assay type: cell-based, human
[3] = NCI-H292 cells, cholesterol-free media with simvastatin 0.04 μM, FDA drug library screen (TABLE 2)
[4] = NCI-H292 cells, complete media, FDA drug library screen (TABLE 2)
[5] = NCI-H292 cells, cholesterol-free media without statin
[6] = NCI-H292 cells, FDA drug library screen, cholesterol-free media with simvastatin 0.04 μM
[7] = NCI-H292 cells, FDA drug library screen, complete media
[8] = complete media vs cholesterol-free media + simvastatin (0.04 μM), >0 enhanced anti-cancer activity, about 0 neutral, <0 antagonist
[9] = Complete minus Cholesterol-free, greater than 0 enhanced anti-cancer activity, about 0 neutral, below 0 antagonist
[10] = NCI-H292 cells, FDA drug library screen, cholesterol-free media without statin
[11] = complete media minus cholesterol-free media + simvastatin, >0 enhanced anti-cancer activity, about 0 neutral, <0 antagonist
[12] = Complete minus Cholesterol-free, greater than 0 enhanced anti-cancer activity, about 0 neutral, below 0 antagonists
[13] = NCI-H292 cells in complete media
[14] = NCI-H292 cells, drug in cholesterol-free media with simvastatin 0.04 μM
[15] = NCI-H292 cells, drug in complete media
[16] = NCI-H292 cells, FDA library drug in cholesterol-free media with simvastatin 0.04 μM
[17] = NCI-H292 cells, FDA library drug in complete media
[18] = NCI-H292 cells, cholesterol-free media without statin, FDA drug library screen
[19] = NCI-H292 cells, complete media, FDA drug library screen
[20] = complete vs cholesterol-free media, >0 enhanced anti-cancer activity, about 0 neutral, <0 antagonist
[21] = complete media minus cholesterol-free media + simvastatin (0.04 μM), >0 enhanced anti-cancer activity, about 0 neutral, <0 antagonist
[22] = NCI-H292 cells in cholesterol-free media without statin
[23] = complete media vs cholesterol-free media + simvastatin (0.04 μM), […]
[24] = Complete minus Cholesterol-free, […]
[25] = complete vs cholesterol-free media, greater than 0 enhanced anti-cancer activity, about 0 neutral, below 0 antagonists
[26] = Complete minus Cholesterol-free, >0 enhanced anti-cancer activity, about 0 neutral, <0 antagonist

## COc1ccc2c3c1O[C@H]1C[C@@H](O)C=C[C@@]31CCN(C)C2 [Galanthamine]
[1]; [3]
  Cholesterol-free media + simvastatin (0.04 μM): 1.051
[1]; [4]
  Complete Media: 1.046
[1]; complete media minus cholesterol-free media + simvastatin (0.04 μM), […]
  Difference: −0.01
[2]; [5]
  Cholesterol-free: 1.164
[2]; NCI-H292 cells, complete media
  Complete: 0.829
[2]; complete vs cholesterol-free media, […]
  Difference: −0.33

## Cc1oc(=O)oc1COC(=O)[C@@H]1N2C(=O)[C@@H](NC(=O)[C@H](N)c3ccccc3)[C@H]2SC1(C)C [Lenampicillin (hydrochloride)]
[1]; [6]
  Cholesterol-free media + simvastatin (0.04 μM): 1.05
[1]; [7]
  Complete Media: 0.9118
[1]; [8]
  Difference: −0.14
[2]; [9]
  Difference: −0.08
[2]; [10]
  Cholesterol-free: 1.101
[2]; [7]
  Complete: 1.02

## CC(C)(C)NCC(O)c1ccccc1Cl (centres unmarked) [Tulobuterol (hydrochloride)]
[1]; [6]
  Cholesterol-free media + simvastatin (0.04 μM): 1.041
[1]; [7]
  Complete Media: 1.605
[1]; [11]
  Difference: 0.56
[2]; [12]
  Difference: −0.62
[2]; [13]
  Complete: 0.9988

## CNC(=O)c1cc(Oc2ccc(NC(=O)Nc3ccc(Cl)c(C(F)(F)F)c3)c(F)c2)ccn1 [Regorafenib]
[1]; [14]
  Cholesterol-free media + simvastatin (0.04 μM): 1.071
[1]; [15]
  Complete Media: 0.8585
[1]; [8]
  Difference: −0.21
[2]; [9]
  Difference: −0.09
[2]; [10]
  Cholesterol-free: 0.6924
[2]; [7]
  Complete: 0.601

## CC(=O)N(CC(O)CO)c1c(I)c(C(=O)NCC(O)CO)c(I)c(C(=O)NCC(O)CO)c1I (centres unmarked) [Iohexol]
[1]; [16]
  Cholesterol-free media + simvastatin (0.04 μM): 1.632
[1]; [17]
  Complete Media: 0.8317
[1]; [8]
  Difference: −0.80
[2]; [9]
  Difference: −0.14
[2]; [10]
  Cholesterol-free: 1.062
[2]; [7]
  Complete: 0.9228

## CCN(CC)C(=O)/C(C#N)=C/c1cc(O)c(O)c([N+](=O)[O-])c1 [Entacapone]
[1]; [6]
  Cholesterol-free media + simvastatin (0.04 μM): 1.719
[1]; [7]
  Complete Media: 1.579
[1]; [8]
  Difference: −0.14
[2]; [18]
  Cholesterol-free: 0.7629
[2]; [19]
  Complete: 0.9193
[2]; [20]
  Difference: 0.16

## Lapatinib (ditosylate)
[1]; [3]
  Cholesterol-free media + simvastatin (0.04 μM): 0.4889
[1]; [4]
  Complete Media: 0.4758
[1]; [21]
  Difference: −0.01
[2]; [9]
  Difference: −0.15
[2]; [10]
  Cholesterol-free: 0.4354
[2]; [7]
  Complete: 0.2847

## NCCS(=O)(=O)O [Taurine]
[1]; [16]
  Cholesterol-free media + simvastatin (0.04 μM): 1.971
[1]; [17]
  Complete Media: 1.363
[1]; [8]
  Difference: −0.61
[2]; [18]
  Cholesterol-free: 1.192
[2]; [19]
  Complete: 1.309
[2]; [20]
  Difference: 0.12

## Sildenafil (citrate)
[1]; [3]
  Cholesterol-free media + simvastatin (0.04 μM): 0.9766
[1]; [4]
  Complete Media: 0.9106
[1]; [21]
  Difference: −0.07
[2]; [12]
  Difference: −0.63
[2]; [22]
  Cholesterol-free: 1.504
[2]; [13]
  Complete: 0.8696

## Bremelanotide (Acetate)
[1]; [16]
  Cholesterol-free media + simvastatin (0.04 μM): 1.644
[1]; [17]
  Complete Media: 1.021
[1]; [23]
  Difference: −0.62
[2]; [24]
  Difference: −0.90
[2]; [22]
  Cholesterol-free: 1.638
[2]; [13]
  Complete: 0.7395

## Cc1ncc(CO)c(CO)c1O.O=C1CC[C@@H](C(=O)O)N1 [Metadoxine]
[1]; [6]
  Cholesterol-free media + simvastatin (0.04 μM): 1.163
[1]; [7]
  Complete Media: 1.057
[1]; [23]
  Difference: −0.11
[2]; [24]
  Difference: −0.12
[2]; [10]
  Cholesterol-free: 1.129
[2]; [7]
  Complete: 1.01

## CN1CCC2=C(C1)c1ccccc1Cc1ccccc12 [Setiptiline]
[1]; [14]
  Cholesterol-free media + simvastatin (0.04 μM): 1.048
[1]; [15]
  Complete Media: 0.8546
[1]; [8]
  Difference: −0.19
[2]; [9]
  Difference: −0.08
[2]; [10]
  Cholesterol-free: 1.103
[2]; [7]
  Complete: 1.024

## CC1(C)[C@H](C(=O)O)N2C(=O)C[C@H]2S1(=O)=O [Sulbactam]
[1]
  Cholesterol-free media + simvastatin (0.04 μM): 1.06
  Complete Media: 1.241
  Difference: 0.18
[2]
  Cholesterol-free: 1.094
  Complete: 1.056
  Difference: −0.04

## CCCCOc1ccc(OCCCN2CCOCC2)cc1 [Pramocaine (hydrochloride)]
[1]; [6]
  Cholesterol-free media + simvastatin (0.04 μM): 0.6469
[1]; [7]
  Complete Media: 1.047
[1]; [11]
  Difference: 0.40
[2]; [5]
  Cholesterol-free: 1.301
[2]; NCI-H292 cells, complete media
  Complete: 0.9298
[2]; [25]
  Difference: −0.37

## CC(=O)N[C@@H](CS)C(=O)O [Acetylcysteine]
[1]; [14]
  Cholesterol-free media + simvastatin (0.04 μM): 1.145
[1]; [15]
  Complete Media: 0.9059
[1]; [8]
  Difference: −0.24
[2]; [12]
  Difference: −0.64
[2]; [22]
  Cholesterol-free: 1.369
[2]; [13]
  Complete: 0.7324

## CC#CCn1c(N2CCC[C@@H](N)C2)nc2c1c(=O)n(Cc1nc(C)c3ccccc3n1)c(=O)n2C [Linagliptin]
[1]; [3]
  Cholesterol-free media + simvastatin (0.04 μM): 1.095
[1]; [4]
  Complete Media: 1.067
[1]; [21]
  Difference: −0.03
[2]; [26]
  Difference: −0.23
[2]; [5]
  Cholesterol-free: 1.072
[2]; NCI-H292 cells, complete media
  Complete: 0.8404

## CCOC(=O)c1c(CSc2ccccc2)n(C)c2cc(Br)c(O)c(CN(C)C)c12 [Umifenovir (hydrochloride)]
[1]; [6]
  Cholesterol-free media + simvastatin (0.04 μM): 0.9009
[1]; [7]
  Complete Media: 1.225
[1]; [11]
  Difference: 0.32
[2]; [5]
  Cholesterol-free: 1.088
[2]; NCI-H292 cells, complete media
  Complete: 0.7625
[2]; [25]
  Difference: −0.33

## CC(=O)O[C@H]1C[C@@]2(C)[C@@H](C[C@@H](O)[C@H]3[C@@]4(C)CC[C@@H](O)[C@@H](C)[C@@H]4CC[C@@]32C)/C1=C(\CCC=C(C)C)C(=O)O [Fusidic acid (sodium salt)]
[1]; [3]
  Cholesterol-free media + simvastatin (0.04 μM): 0.9882
[1]; [4]
  Complete Media: 0.9484
[1]; [21]
  Difference: −0.04
[2]; [18]
  Cholesterol-free: 0.7301
[2]; [19]
  Complete: 1.107
[2]; [20]
  Difference: 0.38

## COc1ccc2[nH]c([S+]([O-])Cc3ncc(C)c(OC)c3C)nc2c1 (centres unmarked) [Omeprazole]
[1]; [14]
  Cholesterol-free media + simvastatin (0.04 μM): 0.8585
[1]; [15]
  Complete Media: 0.6883
[1]; [8]
  Difference: −0.17
[2]; [9]
  Difference: −0.12
[2]; [10]
  Cholesterol-free: 0.995
[2]; [7]
  Complete: 0.8798

## CCCC(CCC)C(=O)O [Valproic acid]
[1]; [14]
  Cholesterol-free media + simvastatin (0.04 μM): 1.017
[1]; [15]
  Complete Media: 0.7948
[1]; [8]
  Difference: −0.22
[2]; [26]
  Difference: −0.29
[2]; [5]
  Cholesterol-free: 0.957
[2]; NCI-H292 cells, complete media
  Complete: 0.6641
